Experimental data as given in US5686416A, “Increasing blood-brain barrier permeability with permeabilizer peptides” (priority 1993, dated 1997).

What was measured:
C. neoformans = assay: Experimentally-induced cryptococcal meningitis in rabbits, CSF colony counts; assay type: in vivo, Cryptococcus neoformans; conditions: 1 mg AmB/kg daily i.v., Days 11 and 14
Experimental: Four day old cultures of C. neoformans containing 100 μg of chloramphenicol per mL were absorbed on cotton swabs, suspended in 15 mM phosphate-buffered saline, and adjusted to approximately 5×10^7 colony forming units (CFU)/mL. New Zealand White rabbits (2-3 kg) were immunosuppressed with 2.5 mg cortisone acetate administered intramuscularly (i.m.) beginning one day prior to inoculation with C. neoformans (Day 0), and once daily thereafter until study termination. On Day 1 rabbits were sedated with ketamine (100-150 mg) and xylazine (15-25 mg) i.m., and intracisternally inoculated with 0.3 mL of C. neoformans suspension. On Day 4 CSF was collected and plated on agar plates containing chloramphenicol to establish a baseline level for C. neoformans counts (CFU/mL), and drug treatment was then initiated. CSF samples were also withdrawn for C. neoformans counts on Days 7, 11 and 14. The duration of drug treatment was 10 days.
Each group size generally consisted of three to five animals. All treatments were administered via an ear vein, and permeabilizer A-7 was always administered immediately prior to AmB. CSF samples were always withdrawn prior to drug therapy on treatment days.

9L Glioma cells = assay: Survival time of rats with brain tumor implants; assay type: in vivo
Experimental: Male Fischer 344 rats (200-250 g) were anesthetized with ketamine HCL (100 mg/kg) and acepromazine (10 mg/kg). The animals were placed in a stereotaxic device. The head of each animal was shaved and a midline incision was made to expose the skull. A small hole was drilled over the right sensorimotor cortex. A […] cell suspension (250,000 9L Glioma cells) was injected over 5 minutes into the right caudate putamen of each animal and the scalp sutured. Animals were observed daily for signs of failing health. When signs of very poor health were observed (eye hemorrhage or loss of righting reflex) animals were euthanatized and the brains examined for presence of tumor.
The results are shown in Table III as median survival with range.

dopamine receptors = conditions: rats; 300 μg domperidone with or without 10 μg permeabilizer A-7, one hour before apomorphine 0.75 mg/kg s.c.
Experimental: Domperidone is a dopamine receptor antagonist used clinically as an anti-emetic by virtue of its action at the area postrema outside the blood-brain barrier.
The activity cages were standard size rat cages with two photocell beams running across the floor of each cage. Any movement of the rat through either of the beams was recorded by a computer. Locomotor activity was measured as the number of beam breaks in a sequence of 10-minute intervals over a two hour period.
The motor activity of the rats was measured in activity cages over 10-minute intervals for up to 2 hours post-apomorphine injection.

blood-brain barrier [1] = assay: Uptake of radiolabelled substances of different molecular weights into the brain (Table I)
Experimental: The animals were euthanatized 10 minutes after the co-administration and the radioactivity present in brain was measured as described previously for ^14 C sucrose.

opiate receptor = assay: Tail flick assay, antinociceptive effect of loperamide; assay type: in vivo; conditions: mice; nalorphine 10 mg/kg i.p. 15 minutes before
Experimental: Female Nalb/C mice weighing approximately 20 g were used. The tail flick assay was performed using a Tail Flick Apparatus model TF6 (Emdie Instruments, Maidens, Va.). The intensity of the heat source was adjusted daily to yield a reaction time between 2.0 and 3.2 seconds in naive untreated mice. The maximum time of exposure to the heat source allowed was 7.5 seconds. The tail withdrawal reaction time of each mouse was measured 4 times at 10 second intervals immediately prior to intravenous injections of the experimental substances via the tail vein. The last three values were averaged and taken as baseline value (Vo). Another set of four measurements was taken at the following intervals after tail vein injection of the opiate receptor agonist loperamide with and without the other agents: immediately, 5 min, 10 min, 15 min, 30 min, and 60 min. The last three values for each of these time points (V) were averaged. […] The results were expressed as percent of maximum antinociceptive response according to the formula: 100×(V-Vo)/(7.5-Vo).

angiotensin II receptors = assay: Drinking behavior of rats with angiotensin II analogue; assay type: in vivo; conditions: 1 μg β-Asp^1 -angiotensin II, 10 μg permeabilizer A-7, with or without 8 μg saralasin i.v., 1 hour
Experimental: The volume of water consumed by each rat over a 1 hour interval was measured.
The saralasin was given because it is a known angiotensin II receptor antagonist. Again, the volume of water consumed by each rat over a 1 hour interval was measured.

blood-brain barrier [2] = assay: Dose response of blood-brain barrier permeabilizers, sucrose uptake studies; assay type: in vivo; conditions: mice; various amounts; FIGS. 3c and 3d
Experimental: Female Balb/C mice weighing approximately 20 g were used. All solutions were prepared in sterile phosphate-buffered saline. […] In other experiments, mice were euthanitized 10 minutes after the ^14 C sucrose administration. Blood was collected in heparinized tubes and centrifuged to separate plasma from the resulting pellet. Radioactivity in a 100 μl aliquot of plasma was measured by liquid scintillation counting after the addition of 15 ml of Aquasol-2 (Dupont). The brain was removed and homogenized in 2.5 ml of water and 2.5 ml of 1% sodium dodecyl sulfate (SDS). One ml of the homogenate was aliquoted and added to 15 ml of Aquasol-2 for counting. Brain uptake of sucrose was calculated and graphically expressed as percent of injected dose×100. […] Each data point represents the mean ± s.d. from 8 mice.

bradykinin receptor = target: T1, bradykinin receptor (Rattus norvegicus, UniProt P25023); assay: Displacement of [^3 H]-bradykinin binding on rat brain endothelial cells; conditions: no competing peptide; corrected for nonspecific binding
T1 construct: endogenous in cells; host or cells: cultured rat brain microvessel endothelial cells, passages 9 to 12, intact monolayers
T1 sequence (P25023 1-396): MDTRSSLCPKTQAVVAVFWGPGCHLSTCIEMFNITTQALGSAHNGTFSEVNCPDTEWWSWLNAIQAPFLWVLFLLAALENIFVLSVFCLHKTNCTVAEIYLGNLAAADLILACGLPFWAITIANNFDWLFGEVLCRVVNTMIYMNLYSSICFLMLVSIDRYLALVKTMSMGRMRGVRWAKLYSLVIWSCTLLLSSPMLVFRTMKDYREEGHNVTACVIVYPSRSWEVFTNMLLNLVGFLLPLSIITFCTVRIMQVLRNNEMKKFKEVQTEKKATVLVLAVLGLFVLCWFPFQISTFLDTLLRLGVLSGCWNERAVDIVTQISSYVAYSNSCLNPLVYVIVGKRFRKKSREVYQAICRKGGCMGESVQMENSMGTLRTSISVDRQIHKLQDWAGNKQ
Experimental: Endothelial cells employed in this study were isolated from individual rat brain microvessels and cultured. For binding studies, cells at passages 9 to 12 were seeded (at a 1:5 split) onto gelatinized 24-well tissue culture dishes. Binding experiments were conducted on day 7 after seeding. […] All subsequent manipulations were performed in the cold room, unless otherwise indicated.
To initiate binding incubations, the buffer was removed from cell layers and replaced with 0.4 mL fresh binding buffer at 4° C. containing [^3 H-pro^2,3 ]-bradykinin ([^3 H]-bradykinin) and competing non-radioactive peptides at concentrations indicated for the individual experiments. Triplicate wells were used for each experimental condition. For later determination of cell number, where indicated, certain wells were covered with binding buffer without radioligand and incubated in parallel with the other samples. […]
The dissociated cells were collected, diluted into 10 mL Isoton diluent, and cell numbers were determined with a Coulter counter. […] The two aliquots were pooled into a single scintillation vial, 10 mL of Hydrofluor scintillation fluid was added and samples were counted for tritium in a scintillation counter. […] Aliquots of each [^3 H]-bradykinin dilution that was added to the cells were counted along with the other samples. […]

[3] = Table IV, additional experiment

In the case of `C[C@@H]1[C@H](O)[C@@H](C)/C=C/C=C/C=C/C=C/C=C/C=C/C=C/[C@H](O[C@@H]2O[C@H](C)[C@@H](O)[C@H](N)[C@@H]2O)C[C@@H]2O[C@](O)(C[C@@H](O)C[C@@H](O)[C@H](O)CC[C@@H](O)C[C@@H](O)CC(=O)O[C@H]1C)C[C@H](O)[C@H]2C(=O)O` [AmB, Amphotericin B], the “CSF C. neoformans counts compared to controls” value (C. neoformans) is reported as “significantly lowered”.

For `N.N.[Cl][Pt][Cl]` [Cisplatin], the “Median Survival” value (9L Glioma cells; Table III, Fischer 344 rats, 9L glioma, i.v. treatment days 5 through 14, cisplatin 200 μg/rat, A-7 50 μg, bradykinin 1 mg) was 13 days, the “Survival, Range” value (9L Glioma cells; Table III, Fischer 344 rats, 9L glioma, treatment days 5 through 14) was 9 to 18 days and the “Median Survival” value (9L Glioma cells; [3]) was 15.5 days. For the same molecule, the “Survival, Range” value (9L Glioma cells; [3]) was 12 to 18 days.

With `O=c1[nH]c2ccccc2n1CCCN1CCC(n2c(=O)[nH]c3cc(Cl)ccc32)CC1` [Domperidone] the “effect on motor activity induced by apomorphine” value (dopamine receptors) was “little, if any, effect”.

With `OC[C@H]1O[C@@](CO)(O[C@H]2O[C@H](CO)[C@@H](O)[C@H](O)[C@H]2O)[C@@H](O)[C@@H]1O` [^14 C-Sucrose, Sucrose] the “% Injected Dose, +10 μg A-7” value (blood-brain barrier [1]; mouse, in vivo, iv) was 0.165 ± 0.049 % Injected Dose and the “% Injected Dose, Control” value (blood-brain barrier [1]; mouse, in vivo, iv) was 0.059 ± 0.014 % Injected Dose.

For `C=CCN1CC[C@]23c4c5ccc(O)c4O[C@H]2[C@@H](O)C=C[C@H]3[C@H]1C5` [nalorphine], the “effect of pretreatment on the antinociceptive response to permeabilizer A-7 and loperamide” value (opiate receptor) was “completely antagonized”.

`CNCC(=O)N[C@@H](CCCN=C(N)N)C(=O)N[C@H](C(=O)N[C@@H](Cc1ccc(O)cc1)C(=O)N[C@H](C(=O)N[C@@H](Cc1cnc[nH]1)C(=O)N1CCC[C@H]1C(=O)N[C@@H](C)C(=O)O)C(C)C)C(C)C` [saralasin] was tested, and the water consumption (angiotensin II receptors) was “remained within a normal range”.

In the case of Inulin [^3 H-Inulin], the “% Injected Dose, +10 μg A-7” value (blood-brain barrier [1]; mice, brain, labelled molecule i.v. with 10 μg permeabilizer A-7, 10 minutes, mean ± s.d.) is reported as 0.110 ± 0.016 % Injected Dose and the “% Injected Dose, Control” value (blood-brain barrier [1]; mice, brain, labelled molecule i.v. with saline, 10 minutes, mean ± s.d.) is reported as 0.075 ± 0.018 % Injected Dose.

For [D-Arg^0 ]-A-7 [A-14], the “uptake of ^14 C-sucrose into the brain compared with A-7” value (blood-brain barrier [2]) was “comparable to A-7”.

For [dehydro Pro^2,7 ]-A-7 [A-9], the “uptake of ^14 C-sucrose into the brain compared with A-7” value (blood-brain barrier [2]) was “comparable to A-7”.

In the case of “^3 H-Bovine Serum Albumin: radiolabelled bovine serum albumin, mol. weight 68,000”, the “% Injected Dose, +10 μg A-7” value (blood-brain barrier [1]; mouse, in vivo, iv) is reported as 0.209 ± 0.056 % Injected Dose and the “% Injected Dose, Control” value (blood-brain barrier [1]; mouse, in vivo, iv) is reported as 0.333 ± 0.098 % Injected Dose.

With “arginine-proline-proline-glycine-phenylalanine-serine-proline-phenylalanine-arginine [[^3 H]-bradykinin]” the “Scatchard analysis of [^3 H]-bradykinin binding” value (bradykinin receptor) was “two affinity classes of [^3 H]-bradykinin binding site”.

B1: ^3 H-RNase: radiolabelled RNase, mol. weight 12,600 (protein, UniProt P61823 27-150, looked up)
Ribonuclease pancreatic: KETAAAKFERQHMDSSTSAASSSNYCNQMMKSRNLTKDRCKPVNTFVHESLADVQAVCSQKNVACKNGQTNCYQSYSTMSITDCRETGSSKYPNCAYKTTQANKHIIVACEGNPYVPVHFDASV
modifications: tritium label
B1 was tested, and the “% Injected Dose, +10 μg A-7” value (blood-brain barrier [1]; mouse, in vivo, iv) was 0.117 ± 0.030 % Injected Dose and the “% Injected Dose, Control” value (blood-brain barrier [1]; mouse, in vivo, iv) was 0.123 ± 0.039 % Injected Dose.

B2: ^3 H-Ovalbumin: radiolabelled ovalbumin, mol. weight 46,000 (protein, UniProt P01012 2-386, looked up)
Ovalbumin: GSIGAASMEFCFDVFKELKVHHANENIFYCPIAIMSALAMVYLGAKDSTRTQINKVVRFDKLPGFGDSIEAQCGTSVNVHSSLRDILNQITKPNDVYSFSLASRLYAEERYPILPEYLQCVKELYRGGLEPINFQTAADQARELINSWVESQTNGIIRNVLQPSSVDSQTAMVLVNAIVFKGLWEKAFKDEDTQAMPFRVTEQESKPVQMMYQIGLFRVASMASEKMKILELPFASGTMSMLVLLPDEVSGLEQLESIINFEKLTEWTSSNVMEERKIKVYLPRMKMEEKYNLTSVLMAMGITDVFSSSANLSGISSAESLKISQAVHAAHAEINEAGREVVGSAEAGVDAASVSEEFRADHPFLFCIKHIATNAVLFFGRCVSP
modifications: tritium label
In the case of B2, the “% Injected Dose, +10 μg A-7” value (blood-brain barrier [1]; mouse, in vivo, iv) is reported as 0.093 ± 0.017 % Injected Dose and the “% Injected Dose, Control” value (blood-brain barrier [1]; mouse, in vivo, iv) is reported as 0.079 ± 0.016 % Injected Dose.
